Source: patent US11555179B2, “Identification of subpopulations of cardiomyocytes” (The University of Hong Kong, priority 2019, dated 2023)

How the values were obtained:
CD36^+ hESC-CMs = assay: Doxorubicin-induced cardiotoxicity (XTT viability, TMRE/MTG Δψm); assay type: cell-based, human; conditions: for effect on cell viability upon dox treatment (XTT): pre-treatment (NAC 1 mM, 1 hr), FIGS. 5I-K show mixed, CD36^+ and CD36^− hESC-CMs
Method: FIGS. 5A and 5B are bar graphs showing the normalized levels of cell viability (A) and mitochondrial membrane potential Δψm (B) of mixed (unsorted) hESC-CMs, CD36^+ hESC-CMs, and CD36^− hESC-CMs after exposure to doxorubicin (dox). The hESC-CMs were treated with 1 mM dox for 24 hrs. Cell viability and mitochondrial membrane potential Δψm were determined by the XTT and TMRE/MTG assays (n=9 and 7), respectively, and normalized to untreated hESC-CMs.
(C) and (D): viability and Δψm for unsorted hESC-CMs; (E) and (F): viability and Δψm for CD36^+ hESC-CMs; (G) and (H): viability and Δψm for CD36^− hESC-CMs. The cells in the “Dox” groups were treated with 1 mM dox for 24 hrs; the cells in the “Dox+DRZ” groups were pre-treated with […] DRZ for 1 hr, followed by co-treatment with 1 mM dox for 24 hrs. Cell viability and mitochondrial membrane potential Δψm were determined by the XTT and TMRE/MTG assays (n=7 and 9), respectively, and normalized to untreated hESC-CMs (i.e., the “Control” groups). *p<0.05, **p<0.01, ***p<0.001.
The cells in the “Dox” groups were treated with 1 mM dox for 24 hrs; the cells in the “Dox+NAC” groups were pre-treated with 1 mM NAC for 1 hr, followed by co-treatment with 1 mM dox for 24 hrs. Cell viability was determined by the XTT assay (n=4) and normalized to untreated cells (i.e., the “Control” groups).

[1] = in vivo; cited from earlier work
hPSC-CMs = conditions: unsorted hPSC-CMs as currently utilized; cited from earlier work
mouse models of DCT = conditions: in vivo; cited from earlier work
[2] = dexrazoxane-treated pediatric patients, two randomized studies; cited from earlier work
[3] = doses exceeding 550 mg/m^2; cited from earlier work
[4] = system: CD172A^+/CD36^+/− hESC-CMs; conditions: 100 μM hydrogen peroxide for 30 min
Method: (§1) FIGS. 4A-4D are bar graphs showing the relative levels of mitochondrial superoxide (A), mitochondrial membrane potential Δψm (B), nuclear condensation (C), and cell viability (D) in CD172A^+/CD36^+/−, CD172A^+/CD36^+, and CD172A^+/CD36^− hECS-CMs after exposure to 100 μM hydrogen peroxide for 30 min. The relative levels of mitochondrial superoxide, mitochondrial membrane potential, nuclear condensation, and cell viability were determined using the MitoSOX™ red dye (n=5), TMRE staining (n=5, calibrated by mitochondrial mass based on the result of MTG staining), Hoechst staining (n=5), and PrestoBlue® staining (n=9), respectively. *p<0.05, **p<0.01, ***p<0.001.
(§2) The responses of mitochondrial function to oxidative stress were examined in subpopulations of hESC-CMs.

CD172A^+/CD36^+ hESC-CMs [5] = conditions: 100 μM hydrogen peroxide for 30 min
Method: as §1, §2

CD172A^+/CD36^− hESC-CMs [6] = conditions: 100 μM hydrogen peroxide for 30 min
Method: as §1, §2

CD172A^+/CD36^+ hESC-CMs [7] = assay: Mitochondrial membrane potential (TMRE) with oleic acid supplementation; assay type: cell-based, human; conditions: nutrient-deficient media lacking fatty acids, plus oleic acid, FIG. 3B
Method: (§3) FIG. 3A is a bar graph showing the uptake of fatty acid (FA) by C[…]^+/CD36^+ (black) and C[…]^+/CD36^- (white) hESC-CMs. The FA uptake assay was performed using a BODIPY-labeled C16 palmitate analog (n=6). FIG. 3B is a bar graph showing the relative levels of mitochondrial membrane potential Δψm in C[…]^+/CD36^+ and C[…]^+/CD36^- hESC-CMs cultured in the absence (black) and presence (gray) of oleic acid (n=5). […] In addition to enhanced mitochondrial output, adult CMs were characterized by their preference for fatty acid as fuel for energy production. In CMs, CD36 functions as a fatty acid translocase to facilitate the uptake of long-chain fatty acids such as palmitic and oleic acids, thus increased level of this protein is expected to enhance fatty acid entry into cells. […] Additional experiments were performed to test whether increased fatty acid uptake led to increased metabolic output. When cultured in nutrient-deficient media lacking fatty acids, C[…]^+/CD36^+ and C[…]^+/CD36^- CMs had similar Δψm.

CD172A^+/CD36^− hESC-CMs [8] = assay: as above; assay type: cell-based, human; conditions: nutrient-deficient media lacking fatty acids, plus oleic acid, FIG. 3B
Method: as §3

[9] = then co-treatment with 1 mM dox 24 hrs

In the case of `CC(=O)N[C@@H](CS)C(=O)O` [N-acetylcysteine], the “effect on cell viability upon dox treatment (XTT)” value (CD36^+ hESC-CMs; [9]) is given as “did not increase cell viability”, the “outcome in clinical trials (DCT)” value [1] is given as “unsuccessful” and the “protection of hPSC-CMs against DCT” value (hPSC-CMs) is given as “rescued”. The “efficacy in mouse models of DCT” value (mouse models of DCT) was “effective”.

In the case of `C[C@@H](CN1CC(=O)NC(=O)C1)N1CC(=O)NC(=O)C1` [dexrazoxane], the “protective effect against DCT (viability and Δψm)” value (CD36^+ hESC-CMs; 200 mM DRZ pre-treatment 1 hr, then co-treatment with 1 mM dox 24 hrs, CD36^+ hESC-CMs, FIGS. 5E, 5F) is given as “responded to the protective effect”, the “incidence of second primary malignancies (myelodysplastic syndrome and acute myeloid leukemia)” value [2] is given as “threefold increase” and the “protection of hPSC-CMs against DCT” value (hPSC-CMs) is given as “failed to protect”.

For `COc1cccc2c1C(=O)c1c(O)c3c(c(O)c1C2=O)C[C@@](O)(C(=O)CO)C[C@@H]3O[C@H]1C[C@H](N)[C@H](O)[C@H](C)O1` [dox, Doxorubicin], the “cell viability upon dox treatment (XTT)” value (CD36^+ hESC-CMs; 1 mM dox for 24 hrs, CD36^+ hESC-CMs compared to mixed (unsorted) or CD36^− CMs, FIG. 5A) was “more severe decrease”, the “mitochondrial membrane potential (Δψm) upon dox treatment (TMRE/MTG)” value (CD36^+ hESC-CMs; 1 mM dox for 24 hrs, CD36^+ hESC-CMs compared to mixed (unsorted) or CD36^− CMs, FIG. 5B) was “more severe decrease” and the “onset of dox-induced cell degeneration” value (CD36^+ hESC-CMs; CD36^+ hESC-CMs compared to mixed (unsorted) or CD36^− CMs) was “accelerated onset”. For the same compound, the “incidence of congestive heart failure” value [3] was “exceeds 30%”.

For `OO` [hydrogen peroxide], the “mitochondrial superoxide (MitoSOX red dye)” value (shortened to “mitochondrial superoxide”) ([4]; FIG. 4A) was 2.2±0.4 fold, the “relative mitochondrial membrane potential Δψm (TMRE, calibrated by MTG)” value ([4]; FIG. 4B) was 0.30±0.03 and the “nuclear condensation (Hoechst staining)” value ([4]; FIG. 4C) was 46±15%. The “mitochondrial superoxide” value (CD172A^+/CD36^+ hESC-CMs [5]; FIG. 4A) was 3.5±0.3 fold, the “relative mitochondrial membrane potential Δψm (TMRE, calibrated by MTG)” value (CD172A^+/CD36^+ hESC-CMs [5]; FIG. 4B) was 0.17±0.03 and the “nuclear condensation (Hoechst staining)” value (CD172A^+/CD36^+ hESC-CMs [5]; FIG. 4C) was 73±8%. The “mitochondrial superoxide” value (CD172A^+/CD36^− hESC-CMs [6]; FIG. 4A) was 1.7±1.2 fold, the “relative mitochondrial membrane potential Δψm (TMRE, calibrated by MTG)” value (CD172A^+/CD36^− hESC-CMs [6]; FIG. 4B) was 0.35±0.04 and the “nuclear condensation (Hoechst staining)” value (CD172A^+/CD36^− hESC-CMs [6]; FIG. 4C) was 32%±11.

In the case of `CCCCCCCC/C=C\CCCCCCCC(=O)O` [oleic acid], the “increase in magnitude of Δψm on supplementation with oleic acid” value (CD172A^+/CD36^+ hESC-CMs [7]) is reported as 43.0% and the “increase in magnitude of Δψm on supplementation with oleic acid” value (CD172A^+/CD36^− hESC-CMs [8]) is reported as 22.9%.

With vitamin E the “effect on cell viability upon dox treatment (XTT)” value (CD36^+ hESC-CMs; [9]) was “did not increase cell viability”.
